Assay results published in patent US20130217655A1, “COMPOSITIONS FOR TREATING PSORIASIS OF THE SCALP” (Dermipsor Ltd., priority 2010, published 2013).

Test: skin penetration of calcipotriol from the formulation
Details: calcipotriol in the present formulation, topical

## C=C1/C(=C\C=C2/CCC[C@]3(C)[C@@H]([C@H](C)/C=C/[C@@H](O)C4CC4)CC[C@@H]23)C[C@@H](O)C[C@@H]1O [Calcipotriol]
  penetration of the skin: does not penetrate the skin
